According to patent US11413290B2, “Amorphous solid dispersions of dasatinib and uses thereof” (NANOCOPOEIA, LLC, priority 2020, dated 2022):

Tests used:
[1] = dasatinib in crystalline forms; cited from earlier work
[2] = Amorphicity / crystallinity by XRD; assay type: physicochemical; details: Comparative Example; promptly after spray drying and secondary drying
Procedure: The percent of crystallinity was calculated as follows: % crystallinity=area of crystalline peaks/(area of crystalline peaks+amorphous peaks)
Amorphicity and glass transition temperature were assessed using the methodology described in Example 1.

[3] = Water content by coulometric Karl Fischer titration; assay type: physicochemical; details: Comparative Example; promptly after preparation
[4] = Assay and total impurities by HPLC (Example 6); assay type: physicochemical; details: Comparative Example; promptly after preparation
Procedure: Assay and total impurities of the ASDs were assessed using either an Agilent 1200 HPLC or a Waters Alliance e2695 HPLC.
L100-55 ASDs and in Table 37 for Dasatinib:METHOCEL E5 ASDs at t=0 and at each stability time point. These reported assay values are corrected for the measured water content of the sample.

[5] = Glass transition temperature by mDSC; details: Comparative Example; promptly after preparation

SMILES	Biopharmaceutical Classification System (BCS) class [1]	XRD character [2]	Water content [3]	assay value [4]	glass transition temperature (Tg), transition event [5]
Cc1nc(Nc2ncc(C(=O)Nc3c(C)cccc3Cl)s2)cc(N2CCN(CCO)CC2)n1 [dasatinib, N-(2-chloro-6-methylphenyl)-2-[[6-[4-(2-hydroxyethyl)-1-piperazinyl]-2-methyl-4-pyrimidinyl]amino]-5-thiazolecarboxamide]	Class II	–	–	–	–
Cc1nc(Nc2ncc(C(=O)Nc3c(C)cccc3Cl)s2)cc(N2CCN(CCO)CC2)n1 [spray-dried material of 100% dasatinib]	–	exhibited crystalline character	0.81%	97.4%	125.61 °C
